Source: patent US10703756B2, “Pyrrolo[2,3-D]pyrimidinyl, pyrrolo[2,3-B]pyrazinyl, pyrrolo[2,3-B]pyridinyl acrylamides and epoxides thereof” (Pfizer Inc., priority 2015, dated 2020)

Columns and labels:
JAK3 enzyme [1] = molecular target: T1, JAK3 enzyme (Homo sapiens, UniProt P52333); experiment: JAK Caliper Enzyme Assay at 4 μM ATP; type: biochemical
T1 sequence (P52333 1-1124): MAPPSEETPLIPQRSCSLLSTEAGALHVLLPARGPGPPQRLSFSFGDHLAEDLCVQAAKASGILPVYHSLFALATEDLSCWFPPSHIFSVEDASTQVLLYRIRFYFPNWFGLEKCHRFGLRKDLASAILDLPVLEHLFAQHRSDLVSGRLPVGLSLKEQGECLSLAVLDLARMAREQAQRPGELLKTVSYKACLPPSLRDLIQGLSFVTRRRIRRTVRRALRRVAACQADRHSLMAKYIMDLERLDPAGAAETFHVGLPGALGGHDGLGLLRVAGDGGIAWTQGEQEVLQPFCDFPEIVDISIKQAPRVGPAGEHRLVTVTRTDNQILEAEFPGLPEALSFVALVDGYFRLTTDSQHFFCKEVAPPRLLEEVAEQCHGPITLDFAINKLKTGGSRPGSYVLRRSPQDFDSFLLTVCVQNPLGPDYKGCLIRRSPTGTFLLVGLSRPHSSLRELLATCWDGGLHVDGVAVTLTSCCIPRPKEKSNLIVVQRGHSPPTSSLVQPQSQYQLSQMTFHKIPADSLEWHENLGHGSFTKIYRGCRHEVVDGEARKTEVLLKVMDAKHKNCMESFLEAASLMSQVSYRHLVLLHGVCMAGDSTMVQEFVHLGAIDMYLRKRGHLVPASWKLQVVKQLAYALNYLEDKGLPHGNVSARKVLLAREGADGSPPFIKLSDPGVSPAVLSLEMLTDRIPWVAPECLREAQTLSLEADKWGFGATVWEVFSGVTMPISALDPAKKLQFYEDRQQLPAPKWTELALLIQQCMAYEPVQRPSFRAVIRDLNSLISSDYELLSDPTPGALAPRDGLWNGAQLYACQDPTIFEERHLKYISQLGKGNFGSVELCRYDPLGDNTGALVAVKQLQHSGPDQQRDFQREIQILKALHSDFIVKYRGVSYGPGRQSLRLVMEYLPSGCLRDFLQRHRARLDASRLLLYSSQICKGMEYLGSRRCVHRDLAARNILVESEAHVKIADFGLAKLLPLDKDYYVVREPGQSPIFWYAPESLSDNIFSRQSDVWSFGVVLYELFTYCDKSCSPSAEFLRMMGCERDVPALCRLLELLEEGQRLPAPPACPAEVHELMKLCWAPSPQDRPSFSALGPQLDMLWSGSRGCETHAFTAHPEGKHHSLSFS
Procedure, shortened: (§1)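 11-pt ½-log cpd titration in DMSO (top 600 μM, pre-assay); enzyme conc/incubation adjusted per prep → 20-30% peptide phosphorylation; phospho vs non-phospho peptide read by chip-based electrophoretic separation.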

JAK3 enzyme [2] = molecular target: T1, JAK3 enzyme; experiment: JAK Caliper Enzyme Assay at 1 mM ATP; type: biochemical
Procedure, shortened: as §1

Compound	IC50 (JAK3 enzyme [1])	IC50 (JAK3 enzyme [2])
C=CC(=O)N1CCC(Nc2cnc3[nH]cc(C(=O)NCC(C)(C)C)c3n2)CC1C (racemic) [Example 267, Racemic-2-[(1-acryloyl-2-methylpiperidin-4-yl)amino]-N-(2,2-dimethylpropyl)-5H-pyrrolo[2,3-b]pyrazine-7-carboxamide]	4.99 nM	802 nM
C=CC(=O)N1CCN(c2cnc3[nH]cc(C(=O)N[C@@H]4COC[C@@H]4CC(C)C)c3n2)CC1(C)C [Example 142, 2-(4-acryloyl-3,3-dimethylpiperazin-1-yl)-N-[(3S,4R)-4-(2-methylpropyl)tetrahydrofuran-3-yl]-5H-pyrrolo[2,3-b]pyrazine-7-carboxamide]	60.4 nM	4430 nM
C=CC(=O)N1C[C@H](Nc2cnc3[nH]cc(C(=O)NCCOC)c3n2)[C@H](C2CC2)C1 [Example 259, 2-{[(3R,4R)-1-acryloyl-4-cyclopropylpyrrolidin-3-yl]amino}-N-(2-methoxyethyl)-5H-pyrrolo[2,3-b]pyrazine-7-carboxamide]	180 nM	> 10000 nM
C=CC(=O)N1CCC(N(C)c2cnc3[nH]cc(C(=O)NCC)c3n2)C1 (racemic) [Example 28, Racemic-2-[(1-acryloylpyrrolidin-3-yl)(methyl)amino]-N-ethyl-5H-pyrrolo[2,3-b]pyrazine-7-carboxamide]	13.7 nM	1160 nM
C=CC(=O)N1C[C@H](CO)C[C@H](Nc2ncnc3[nH]ccc23)C1 (single isomer, unassigned) [Example 99]	89.2 nM	8990 nM
C=CC(=O)N1C[C@H](C2CC2)[C@H](Nc2cnc3[nH]cc(C(=O)NCCOC)c3n2)C1 [Example 247, 2-{[(3S,4S)-1-acryloyl-4-cyclopropylpyrrolidin-3-yl]amino}-N-(2-methoxyethyl)-5H-pyrrolo[2,3-b]pyrazine-7-carboxamide]	3.34 nM	829 nM
C=CC(=O)N1CCC(Oc2cnc3[nH]cc(C(=O)NC4CCCC(F)(F)C4)c3c2)CC1 (stereo not shown) [Example 339, 5-[(1-acryloylpiperidin-4-yl)oxy]-N-(3,3-difluorocyclohexyl)-1H-pyrrolo[2,3-b]pyridine-3-carboxamide]	16.5 nM	2700 nM
C=CC(=O)N1CCN(c2cnc3[nH]cc(C(=O)N[C@H](CO)C(CC)CC)c3n2)CC1(C)C [Example 137, 2-(4-acryloyl-3,3-dimethylpiperazin-1-yl)-N-[(2S)-3-ethyl-1-hydroxypentan-2-yl]-5H-pyrrolo[2,3-b]pyrazine-7-carboxamide]	28.1 nM	3020 nM
C#CCNC(=O)c1c[nH]c2ncc(N3CCN(C(=O)C=C)C(C)(C)C3)nc12 [Example 83, 2-(4-acryloyl-3,3-dimethylpiperazin-1-yl)-N-(prop-2-yn-1-yl)-5H-pyrrolo[2,3-b]pyrazine-7-carboxamide]	10.7 nM	1110 nM
C=CC(=O)N1CC[C@@H](Nc2cnc3[nH]cc(C(=O)NCCC(F)(F)F)c3n2)C[C@H]1C (single isomer, unassigned) [Example 23]	3.58 nM	651 nM
C=CC(=O)N1CC[C@H](COc2cnc3[nH]cc(C(=O)N[C@H](C)COC)c3n2)C1 (single isomer, unassigned) [Example 15]	31.4 nM	3280 nM
C=CC(=O)N1CCN(c2cnc3[nH]cc(C(=O)N[C@@H](C)[C@H](O)c4ccccc4)c3n2)CC1(C)C [Example 156, 2-(4-acryloyl-3,3-dimethylpiperazin-1-yl)-N-[(1R,2S)-1-hydroxy-1-phenylpropan-2-yl]-5H-pyrrolo[2,3-b]pyrazine-7-carboxamide]	28.9 nM	4090 nM
C=CC(=O)N1CCN(c2cnc3[nH]cc(C(=O)N[C@H](C)COc4ccccc4)c3n2)CC1(C)C [Example 167, 2-(4-acryloyl-3,3-dimethylpiperazin-1-yl)-N-[(2R)-1-phenoxypropan-2-yl]-5H-pyrrolo[2,3-b]pyrazine-7-carboxamide]	4.61 nM	599 nM
C=CC(=O)N1CCC(Nc2cnc3[nH]cc(C(=O)NCc4nc5ccc(F)cc5o4)c3n2)CC1 [Example 194, 2-[(1-acryloylpiperidin-4-yl)amino]-N-[(6-fluoro-1,3-benzoxazol-2-yl)methyl]-5H-pyrrolo[2,3-b]pyrazine-7-carboxamide]	0.993 nM	22 nM
C=CC(=O)N1CCN(c2cnc3[nH]cc(C(=O)N[C@@H]4C[C@H]4C(F)(F)F)c3n2)C[C@@H]1CC(C)C [Example 303, 2-[(3S)-4-acryloyl-3-(2-methylpropyl)piperazin-1-yl]-N-[(1R,2R)-2-(trifluoromethyl)cyclopropyl]-5H-pyrrolo[2,3-b]pyrazine-7-carboxamide]	4.81 nM	731 nM
C=CC(=O)N1CC[C@@H](COc2cnc3[nH]cc(C(=O)N[C@@H](C)COC)c3n2)C1 (single isomer, unassigned) [Example 12]	5.28 nM	766 nM
C=CC(=O)N1CC(Nc2cnc3[nH]cc(C(=O)NCC(F)(F)F)c3n2)C2(CC2)C1 (stereo not shown) [Example 242, 2-[(5-acryloyl-5-azaspiro[2.4]hept-7-yl)amino]-N-(2,2,2-trifluoroethyl)-5H-pyrrolo[2,3-b]pyrazine-7-carboxamide]	62.1 nM	> 10000 nM
C=CC(=O)N1CCN(c2cnc3[nH]cc(C(=O)N[C@@H]4C[C@H]4C(F)(F)F)c3n2)CC1(C)C [Example 290, 2-(4-acryloyl-3,3-dimethylpiperazin-1-yl)-N-[(1R,2R)-2-(trifluoromethyl)cyclopropyl]-5H-pyrrolo[2,3-b]pyrazine-7-carboxamide]	20.8 nM	2150 nM
C=CC(=O)N1CCN(c2cnc3[nH]cc(C(=O)N[C@H](C)COC)c3n2)CC1(C)COC (stereo partly drawn) [Example 63, 2-(4-acryloyl-3-(methoxymethyl)-3-methylpiperazin-1-yl)-N-((R)-1-methoxypropan-2-yl)-5H-pyrrolo[2,3-b]pyrazine-7-carboxamide]	2.44 nM	379 nM
C=CC(=O)N1CCC(Oc2cnc3[nH]cc(C(=O)NCCC)c3c2)CC1 [Example 347, 5-[(1-acryloylpiperidin-4-yl)oxy]-N-propyl-1H-pyrrolo[2,3-b]pyridine-3-carboxamide]	24.2 nM	3080 nM
C=CC(=O)N1CCC(Oc2cnc3[nH]cc(C(=O)NCC4CC4)c3c2)CC1 [Example 343, 5-[(1-acryloylpiperidin-4-yl)oxy]-N-(cyclopropylmethyl)-1H-pyrrolo[2,3-b]pyridine-3-carboxamide]	75.1 nM	4880 nM
C=CC(=O)N1C[C@H](Nc2cnc3[nH]cc(C(=O)NCC)c3n2)C[C@@H]1COC [Example 262, 2-{[(3R,5R)-1-acryloyl-5-(methoxymethyl)pyrrolidin-3-yl]amino}-N-ethyl-5H-pyrrolo[2,3-b]pyrazine-7-carboxamide]	11.6 nM	2180 nM
C=CC(=O)N1CCC(Oc2cnc3[nH]cc(-c4ncn(CC)n4)c3n2)CC1 [Example 125, 1-(4-{[7-(1-Ethyl-1H-1,2,4-triazol-3-yl)-5H-pyrrolo[2,3-b]pyrazin-2-yl]oxy}piperidin-1-yl)prop-2-en-1-one]	7.82 nM	1880 nM
